“And” between values parts separate entries of the source, which are not always exact repeats. Equal values may be shown once. Toxic doses and inconclusive results are not listed.

This test deals with P388 leukemia ip, CD2F1 mice, survival T/C. Kind of test: NCI In Vivo Anticancer Drug Screen. Data for tumor model P388 Leukemia (intraperitoneal) in CD2F1 (CDF1) mice. Particulars: endpoint: median survival time, higher = longer survival. The method, boiled down:
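Mice carrying the transplanted tumor received test compound or vehicle. Survival was recorded in each group, and the value is the treated-group measurement divided by that of the vehicle-treated control group.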

Setting [1] is: dose: 60.0 mg/kg/injection, schedule: Q01DX005 (ip), vehicle: Klucel (hydroxypropylcellulose) (HPC).
The mark [2] stands for this setting: dose: 120.0 mg/kg/injection, schedule: Q01DX005 (ip), vehicle: Klucel (hydroxypropylcellulose) (HPC).
The mark [3] stands for this setting: dose: 240.0 mg/kg/injection, schedule: Q01DX005 (ip), vehicle: Klucel (hydroxypropylcellulose) (HPC).
Where [4] appears, read: dose: 50.0 mg/kg/injection, schedule: Q01DX005 (ip), vehicle: saline with Tween-80.
Where [5] appears, read: dose: 100.0 mg/kg/injection, schedule: Q01DX005 (ip), vehicle: saline with Tween-80.
[6] abbreviates: dose: 200.0 mg/kg/injection, schedule: Q01DX005 (ip), vehicle: saline with Tween-80.
Where [7] appears, read: dose: 50.0 mg/kg/injection, schedule: Q01DX005 (ip), vehicle: Klucel (hydroxypropylcellulose) (HPC).
Where [8] appears, read: dose: 100.0 mg/kg/injection, schedule: Q01DX005 (ip), vehicle: Klucel (hydroxypropylcellulose) (HPC).
Where [9] appears, read: dose: 60.0 mg/kg/injection, schedule: Q01DX005 (ip), vehicle: saline with Tween-80.
Setting [10] is: dose: 120.0 mg/kg/injection, schedule: Q01DX005 (ip), vehicle: saline with Tween-80.
[11] abbreviates: dose: 240.0 mg/kg/injection, schedule: Q01DX005 (ip), vehicle: saline with Tween-80.
[12] abbreviates: dose: 100.0 mg/kg/injection, schedule: Q04DX003 (ip), vehicle: Klucel (hydroxypropylcellulose) (HPC).
[13] abbreviates: dose: 200.0 mg/kg/injection, schedule: Q04DX003 (ip), vehicle: Klucel (hydroxypropylcellulose) (HPC).
The mark [14] stands for this setting: dose: 400.0 mg/kg/injection, schedule: Q04DX003 (ip), vehicle: Klucel (hydroxypropylcellulose) (HPC).

On to `CCOc1c(N=Nc2ccccc2[N+](=O)[O-])c(C)nn1C(N)=S`, for which the T/C reads like this: (dose: 15.0 mg/kg/injection, schedule: Q01DX005 (ip), vehicle: Klucel + Tween-80) 100 % of control; (dose: 30.0 mg/kg/injection, schedule: Q01DX005 (ip), vehicle: Klucel + Tween-80) 89 % of control; (dose: 60.0 mg/kg/injection, schedule: Q01DX005 (ip), vehicle: Klucel + Tween-80) 86 % of control and 90 % of control.

As to `Cc1nc2oc(=O)cc(C)c2c(=O)[nH]1`, the T/C was 91 % of control under setting [1] and 96 % of control under setting [2].

Take `N#CC1=C(Nc2ccccc2Cl)SC2(CCCC2)NC1=O`: the T/C by setting is: under setting [1], 100 % of control; under setting [2], 100 % of control; under setting [3], 92 % of control.

In the case of `O=c1/c(=C/c2ccc(/C=c3\sc4nc5ccccc5n4c3=O)cc2)sc2nc3ccccc3n12`, the T/C was 92 % of control under setting [4], 90 % of control under setting [5] and 95 % of control under setting [6].

`CS(=O)(=O)c1ccc(C[N+]23CN4CN(CN(C4)C2)C3)cc1`: the T/C is 98 % of control under setting [1], 99 % of control under setting [2] and 98 % of control under setting [3].

As to `COc1ccccc1N=C(NC#N)C(c1ccccc1)c1ccccc1`, the T/C is 99 % of control (dose: 100.0 mg/kg/injection, schedule: Q01DX001 (ip), vehicle: saline with Tween-80); 97 % of control (dose: 200.0 mg/kg/injection, schedule: Q01DX001 (ip), vehicle: saline with Tween-80); 93 % of control (dose: 400.0 mg/kg/injection, schedule: Q01DX001 (ip), vehicle: saline with Tween-80).

`COc1ccc2ncc(C)c(CO)c2c1`: the T/C is, setting by setting: under setting [4], 116 % of control; under setting [5], 102 % of control; under setting [6], 98 % of control.

Turning to `CN(C)c1ccc(C=C2C(=O)OC(C)(C)OC2=O)cc1`, the T/C is 114 % of control under setting [7]; 105 % of control under setting [8]; 114 % of control (dose: 200.0 mg/kg/injection, schedule: Q01DX005 (ip), vehicle: Klucel (hydroxypropylcellulose) (HPC)).

On to `Cc1nc2[nH]cc(C)c2c(=O)[nH]1`, for which the T/C is, setting by setting: under setting [9], 103 % of control; under setting [10], 97 % of control; under setting [11], 105 % of control.

As to `O=C1Nc2ccccc2/C1=c1/sc2nc3ccccc3n2c1=O`, the T/C reads like this: (dose: 200.0 mg/kg/injection, schedule: Q01DX001 (ip), vehicle: Klucel (hydroxypropylcellulose) (HPC)) 89 % of control; (dose: 400.0 mg/kg/injection, schedule: Q01DX001 (ip), vehicle: Klucel (hydroxypropylcellulose) (HPC)) 89 % of control.

On to `[Cl][Cu][Cl]`, for which the T/C is, setting by setting: (dose: 3.13 mg/kg/injection, schedule: Q04DX003 (ip), vehicle: saline) 90 % of control; (dose: 6.25 mg/kg/injection, schedule: Q04DX003 (ip), vehicle: saline) 104 % of control.

For `Nc1ncnc2c1c(-c1ccc(Cl)cc1)cn2-c1ccccc1`, the T/C reads like this: under setting [9], 100 % of control; under setting [10], 96 % of control; under setting [11], 90 % of control.

Take `O=C1c2cc([N+](=O)[O-])cc3cc([N+](=O)[O-])cc(c23)C(=O)N1CCNCCNCCNCCN1C(=O)c2cc([N+](=O)[O-])cc3cc([N+](=O)[O-])cc(c23)C1=O`: the T/C by setting is: (dose: 12.5 mg/kg/injection, schedule: Q04DX002 (ip), vehicle: saline with Tween-80) 112 % of control; (dose: 25.0 mg/kg/injection, schedule: Q04DX002 (ip), vehicle: saline with Tween-80) 121 % of control; (dose: 50.0 mg/kg/injection, schedule: Q04DX002 (ip), vehicle: saline with Tween-80) 122 % of control.

Consider `COc1ccc(/C=C/C(=O)c2cc(C(=O)O)c(OC)cc2OC)cc1OC`, for which the T/C is 117 % of control and 120 % of control (dose: 50.0 mg/kg/injection, schedule: Q01DX009 (ip), vehicle: suspension in saline); 123 % of control (dose: 100.0 mg/kg/injection, schedule: Q01DX009 (ip), vehicle: suspension in saline).

In the case of `CNC(=S)N/N=C/Cn1cc([N+](=O)[O-])c(=O)[nH]c1=O`, the T/C by setting is: under setting [7], 98 % of control; under setting [8], 100 % of control.

In the case of `COc1nc(/C=C/c2ccccc2)c([N+](=O)[O-])c(OC)n1`, the T/C (dose: 100.0 mg/kg/injection, schedule: Q04DX003 (ip), vehicle: saline) was 103 % of control; the T/C (dose: 200.0 mg/kg/injection, schedule: Q04DX003 (ip), vehicle: saline) was 103 % of control; the T/C (dose: 400.0 mg/kg/injection, schedule: Q04DX003 (ip), vehicle: saline) was 100 % of control.

Consider `Nc1nc(-c2ccccc2N=NN2CCN(N=Nc3ccccc3-c3nc(N)c4ccccc4n3)CC2)nc2ccccc12`, for which the T/C is 104 % of control (dose: 0.78 mg/kg/injection, schedule: Q01DX009 (ip), vehicle: Klucel (hydroxypropylcellulose) (HPC)); 102 % of control (dose: 1.56 mg/kg/injection, schedule: Q01DX009 (ip), vehicle: Klucel (hydroxypropylcellulose) (HPC)); 95 % of control (dose: 3.12 mg/kg/injection, schedule: Q01DX009 (ip), vehicle: Klucel (hydroxypropylcellulose) (HPC)); 100 % of control (dose: 6.25 mg/kg/injection, schedule: Q01DX009 (ip), vehicle: Klucel (hydroxypropylcellulose) (HPC)).

In the case of `COc1cc2c(c(OC)c1OC)C1=NNC(=O)C1(C)CC2` (stereo unspecified), the T/C reads like this: under setting [12], 91 % of control; under setting [13], 88 % of control; under setting [14], 92 % of control.

As to `CCOC(=O)CC1(C)NC(=O)NC1=O` (stereo unspecified), the T/C reads like this: (dose: 50.0 mg/kg/injection, schedule: Q04DX003 (ip), vehicle: Klucel (hydroxypropylcellulose) (HPC)) 108 % of control; under setting [12], 100 % of control; under setting [13], 101 % of control; under setting [14], 100 % of control.

In the case of `CCOC(=O)N1CCc2cc3c(cc2C1Cc1ccc(OC)c(OC)c1CCl)OCO3` (stereo unspecified), the T/C runs as follows: under setting [4], 100 % of control; under setting [5], 92 % of control.

On to `O=S(=O)(CCl)NCCCl`, for which the T/C runs as follows: (dose: 50.0 mg/kg/injection, schedule: Q01DX009 (ip), vehicle: saline with Tween-80) 100 % of control; (dose: 100.0 mg/kg/injection, schedule: Q01DX009 (ip), vehicle: saline with Tween-80) 106 % of control; (dose: 200.0 mg/kg/injection, schedule: Q01DX009 (ip), vehicle: saline with Tween-80) 106 % of control.

Take `CC(=O)/C(Cl)=N\O`: the T/C was 100 % of control (dose: 3.12 mg/kg/injection, schedule: Q01DX005 (ip), vehicle: saline); 107 % of control (dose: 6.25 mg/kg/injection, schedule: Q01DX005 (ip), vehicle: saline); 109 % of control (dose: 12.5 mg/kg/injection, schedule: Q01DX005 (ip), vehicle: saline).

As for `C=COC(=O)C(C)(CC)CC(C)C` (stereo unspecified), the T/C is 115 % of control (dose: 50.0 mg/kg/injection, schedule: Q01DX009 (ip), vehicle: other) and 108 % of control (dose: 100.0 mg/kg/injection, schedule: Q01DX009 (ip), vehicle: other).

For the compound `CCNC(=O)OCCN(CC)CC`, the T/C by setting is: (dose: 50.0 mg/kg/injection, schedule: Q01DX009 (ip), vehicle: saline) 103 % of control; (dose: 100.0 mg/kg/injection, schedule: Q01DX009 (ip), vehicle: saline) 103 % of control; (dose: 200.0 mg/kg/injection, schedule: Q01DX009 (ip), vehicle: saline) 104 % of control.

For `CN(Cc1cnc2nc(N)nc(N)c2n1)c1ccc(C(=O)NC(CCC(=O)O)C(=O)O)cc1Br` (stereo unspecified), the T/C runs as follows: (dose: 0.62 mg/kg/injection, schedule: Q01DX009 (ip), vehicle: saline sonified) 209 % of control; (dose: 1.25 mg/kg/injection, schedule: Q01DX009 (ip), vehicle: saline sonified) 236 % of control; (dose: 2.5 mg/kg/injection, schedule: Q01DX009 (ip), vehicle: saline sonified) 245 % of control; (dose: 5.0 mg/kg/injection, schedule: Q04DX003 (ip), vehicle: saline with Tween-80) 200 % of control; (dose: 6.6 mg/kg/injection, schedule: Q04DX003 (ip), vehicle: saline with Tween-80) 166 % of control; (dose: 10.0 mg/kg/injection, schedule: Q04DX003 (ip), vehicle: saline with Tween-80) 166 % of control and 200 % of control.

Consider `O=C(O)C1=Cc2ccccc2OC1`, for which the T/C runs as follows: under setting [12], 101 % of control; under setting [13], 107 % of control; under setting [14], 105 % of control.

Values taken from PubChem BioAssay AID330 (DTP/NCI, 2004).
